Results on 31 molecules are retold here after patent US11957680B2, “Pyruvate kinase activators for use in treating blood disorders” (Agios Pharmaceuticals, Inc., priority 2017, dated 2024).

For assay [1], the target named is T1, wild type PKR (Homo sapiens, UniProt P30613). Briefly: PKR (wild type) enzyme AC50 assay, LDH/NADH-coupled, absorbance at 340 nm. The format is biochemical. The note with it: Table 2; enzyme assay; read-out: PKR WT AC50. How it is done:
(§1) Example 11. PKR Mutant Assay
(§2) PKR or PKR mutant enzyme solution was diluted into a reaction mix, which contains 1× buffer (100 mM KCl, 50 mM Tris pH 7.5, 5 mM MgCl2) as well as PEP (conc depends on enzyme), 180 μM NADH, 0.5 units LDH, 1 mM DTT, 0.03% BSA; final assay concentrations after 1.11 fold dilution are indicated.
(§3) 2 μL of test compound was added into wells first, and then 180 μL reaction mix was added.
(§4) Reactions mixture with test compound was assembled except for ADP, and plates were stored for 60 minutes at room temperature.
(§5) 20 uL ADP was added to start reaction at room temperature and reaction progress was measured as changes in absorbance at 340 nm wavelength at room temperature.
(§6) Test Compound Preparation:
(§7) Test compound stock was made at 100× concentration in 100% DMSO (10 mM)
(§8) 1 to 3 dilutions were made for 11 points (i.e. 50 μl of first concentration added to 100 μl 100% DMSO to yield 3.33 mM, 50 μl of this added to 100 μl DMSO to yield 1.11 mM, and so forth) • 1 to 100 dilution into assay (2 μl in 200 μl) yielded starting concentration of 100 μM, decreasing 3 fold for 11 points.
(§9) Assay Buffer: 100 mM KCl, 50 mM Tris 7.5, 5 mM MgCl2, 1 mM DTT, 0.03% BSA
(§10) Reaction Mixture: PKR mutant enzyme: 40-400 ng/well; ADP: 0.2-1.65 mM; PEP: 0.1-0.5 mM; NADH: 180 μM; LDH: 0.5 units (Sigma #59023); DTT: 1 mM; BSA: 0.03%.

Assay [2] concerns the target PKR K410E (Homo sapiens, UniProt P30613, K410E). Nature of the assay: PKR mutant assay (K410E), AC50, LDH/NADH-coupled, absorbance at 340 nm. Type of assay: biochemical. Conditions: Table 2; enzyme assay. On the procedure:
as §1, §2, §3, §4, §5, §6, §7, §8, §9, §10

Assay [3] concerns the target PKR R510Q (Homo sapiens, UniProt P30613, R510Q). Nature of the assay: PKR mutant assay (R510Q), AC50, LDH/NADH-coupled, absorbance at 340 nm. The format is biochemical. The note with it: Table 2, enzyme assay; for AC50: read-out: PK R510Q AC50. How it is done: as §1, §2, §3, §4, §5, §6, §7, §8, §9, §10
Assay [4] concerns the target T1, wild type PKR. Nature of the assay: Cell based ATP assay in purified red blood cells (Cell-Titer-Glo). The note with it: Table 2; RBCs, overnight at 37° C., ATP levels. Further details: endogenous in cells; host or cells: purified red blood cells from healthy volunteers. On the procedure:
Example 16. Red Blood Cell (RBC) Purification
Fresh blood drawn from healthy volunteers into K2EDTA tubes was collected. Whole blood was pelleted by spinning at 500 g for 10 minutes. Cut transfusion bag port off of Purecell leukocyte reduction neofilter (Fisher NC0267633) one (1) inch above filter. Attach a 10 ml syringe barrel to the remaining cut tubing attached to neofilter. The plasma layer was removed from the pellet of the whole blood and the pellet was resuspended in 2× volume of phosphate buffered saline (PBS). Transfer 9 ml re-suspended blood cell pellet to prepared 10 ml syringe that is attached to the neofilter. Allow whole blood to gravity flow through filter until all fluid runs through upper tubing into filter disc. Add plunger to the syringe, remove syringe from clamp and invert the filter, then plunge air through the syringe filter system. Using a new 5 ml syringe, remove filtered RBCs from the bag by the syringe port and transfer purified RBCs to a 5 ml snap cap tube that has been incubated on ice. Spin 5 ml snap cap tube at 500 g for 10 minutes at 15 C, aspirate supernatant and resuspend in AGAM (1×PBS, 1% glucose, 170 mg/L adenine, 5.25 g/L mannitol) at a density of 4×10^9 cells/mL.
Example 17. Cell Based ATP Assay
For cell based ATP assays, the compound as described herein was prepared in 100% DMSO as a 10 mM stock. Serial dilutions (1:4) were performed in 96-well V-bottom storage plate and then added 1:100 to 96-well V-bottom plates containing AGAM. RBCs were diluted in AGAM media to a density of 1×10^7 cells/mL before added 90 μL/well to black clear bottom assay plates (final compound concentration at 0.1% DMSO concentration). Assay plates were sealed using aluminum foil seals and incubated overnight at 37° C. in a humidified chamber. ATP levels were read out using Cell-Titer-Glo (Promega).

T1 sequence (P30613 whole entry): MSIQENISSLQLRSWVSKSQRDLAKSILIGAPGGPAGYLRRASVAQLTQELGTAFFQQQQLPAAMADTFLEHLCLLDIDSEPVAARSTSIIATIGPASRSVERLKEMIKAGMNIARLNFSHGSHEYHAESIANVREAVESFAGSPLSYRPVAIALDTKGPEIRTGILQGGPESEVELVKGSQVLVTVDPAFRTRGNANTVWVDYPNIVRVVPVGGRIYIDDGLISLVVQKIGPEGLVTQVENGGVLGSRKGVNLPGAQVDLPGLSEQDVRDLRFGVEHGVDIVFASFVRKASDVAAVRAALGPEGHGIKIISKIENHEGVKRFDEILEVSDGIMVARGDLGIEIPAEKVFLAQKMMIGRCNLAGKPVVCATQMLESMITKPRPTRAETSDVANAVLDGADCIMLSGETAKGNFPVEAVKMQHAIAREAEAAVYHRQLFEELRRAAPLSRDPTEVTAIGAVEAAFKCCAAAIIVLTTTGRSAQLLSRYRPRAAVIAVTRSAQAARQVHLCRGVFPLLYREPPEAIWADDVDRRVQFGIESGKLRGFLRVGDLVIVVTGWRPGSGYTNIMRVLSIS
PKR R510Q, sequence (P30613 whole entry R510Q): as the sequence (P30613 whole entry) above, with R510Q counted along it
PKR K410E, sequence (P30613 whole entry K410E): as the sequence (P30613 whole entry) above, with K410E counted along it

Usually AC50 stands for the concentration giving half of the maximal activity seen. Regarding `COc1cccc(Cn2ncc3c4sc(C)nc4n(C)c3c2=O)c1` [Compound 1], the AC50 in assay [1] is under 300 nM; in assay [2], under 300 nM; in assay [3], under 300 nM; in assay [4], at most 1000 nM.

In the case of `COc1ccc(Cn2ncc3c4sc(C)nc4n(C)c3c2=O)cc1` [Compound 2], the AC50 in assay [1] is under 300 nM; in assay [2], under 300 nM; in assay [4], at most 1000 nM.

On to `Cc1nc2c(s1)c1cnn(Cc3ccccc3F)c(=O)c1n2C` [Compound 3], for which the AC50 in assay [1] is under 300 nM; in assay [2], under 300 nM; in assay [3] it was under 300 nM; in assay [4], at most 1000 nM.

Turning to `COc1cccc(Cn2ncc3c4sc(C(=O)c5ccccc5)nc4n(C)c3c2=O)c1` [Compound 4], the AC50 in assay [1] and in assay [3] was over 800 nM in each case. Also, the “PKR K410E AC50” value in assay [2] is recorded as “No Fit”. In assay [4], the “Cell based ATP assay AC50” value is on record as “No Fit”.

In the case of `COc1cccc(Cn2ncc3c4sc(Cc5ccccc5)nc4n(C)c3c2=O)c1` [Compound 5], the AC50 was under 300 nM in assay [1], under 300 nM in assay [2], under 300 nM in assay [3] and at most 1000 nM in assay [4].

`Cc1nc2c(s1)c1cnn(Cc3cccc(F)c3)c(=O)c1n2C` [Compound 6]: the AC50 in assay [1] is over 800 nM; in assay [2] it was over 800 nM; in assay [3], over 800 nM; in assay [4], over 1000 nM.

Consider `Cc1nc2c(s1)c1cnn(Cc3cccc(O)c3)c(=O)c1n2C` [Compound 7], for which the AC50 is under 300 nM in assay [1], under 300 nM in assay [2], under 300 nM in assay [3] and at most 1000 nM in assay [4].

With `COc1ccccc1Cn1ncc2c3sc(C)nc3n(C)c2c1=O` [Compound 8], the AC50 in assay [1] is over 800 nM; in assay [2], 301 to 800 nM; in assay [3], 301 to 800 nM; in assay [4], over 1000 nM.

As for `Cc1nc2c(s1)c1cnn(Cc3ccc(F)cc3)c(=O)c1n2C` [Compound 9], the AC50 in assay [1] is under 300 nM; in assay [2] it was under 300 nM; in assay [3], under 300 nM; in assay [4], at most 1000 nM.

Take `CCOC(=O)c1cccc(Cn2ncc3c4sc(C)nc4n(C)c3c2=O)c1` [Compound 10]: the AC50 in assay [1], in assay [2] and in assay [3] was over 800 nM each time. Also, the “Cell based ATP assay AC50” value in assay [4] was “No Fit”.

Turning to `Cc1nc2c(s1)c1cnn(Cc3cccc(C(=O)O)c3)c(=O)c1n2C` [Compound 11], the AC50 in assay [1], in assay [2] and in assay [3] was over 800 nM in each case. The “Cell based ATP assay AC50” value in assay [4] is reported as “No Fit”.

Take `COc1cccc(Cn2ncc3c4sc(C(F)c5ccccc5)nc4n(C)c3c2=O)c1` (stereo not shown) [Compound 12]: the AC50 in assay [1], in assay [2] and in assay [3] was under 300 nM throughout.

On to `COc1cccc(Cn2ncc3c4sc(C(O)c5ccccc5)nc4n(C)c3c2=O)c1` (stereo not shown) [Compound 13], for which the AC50 is under 300 nM in assay [1], under 300 nM in assay [2], under 300 nM in assay [3] and at most 1000 nM in assay [4].

For `Cc1nc2c(s1)c1cnn(Cc3cccc(N)c3)c(=O)c1n2C` [Compound 14], the AC50 is under 300 nM in assay [1], under 300 nM in assay [2], under 300 nM in assay [3] and at most 1000 nM in assay [4].

Consider `Cc1nc2c(s1)c1cnn(Cc3cccc(NC(N)=O)c3)c(=O)c1n2C` [Compound 15], for which the AC50 is over 800 nM in assay [1], over 800 nM in assay [2], under 300 nM in assay [3] and over 1000 nM in assay [4].

As for `Cc1nc2c(s1)c1cnn(Cc3ccc(O)cc3)c(=O)c1n2C` [Compound 16], the AC50 in assay [1], in assay [2] and in assay [3] was under 300 nM throughout.

Take `Cc1cccc(Cn2ncc3c4sc(C)nc4n(C)c3c2=O)n1` [Compound 17]: the AC50 in assay [1] is under 300 nM; in assay [2], under 300 nM; in assay [3] it was under 300 nM; in assay [4], at most 1000 nM.

`Cc1nc2c(s1)c1cnn(Cc3ccccc3O)c(=O)c1n2C` [Compound 18]: the AC50 was 301 to 800 nM in assay [1], 301 to 800 nM in assay [2], under 300 nM in assay [3] and at most 1000 nM in assay [4].

For `COc1cccc(Cn2ncc3c4scnc4n(C)c3c2=O)c1` [Compound 19], the AC50 is 301 to 800 nM in assay [1], 301 to 800 nM in assay [2], under 300 nM in assay [3] and over 1000 nM in assay [4].

As for `Cc1nc2c(s1)c1cnn(Cc3ccc4nn[nH]c4c3)c(=O)c1n2C` [Compound 20], the AC50 in assay [1] is over 800 nM; in assay [2], over 800 nM; in assay [3], over 800 nM; in assay [4], over 1000 nM.

Turning to `Cc1nc2c(s1)c1cnn(CO)c(=O)c1n2C` [Compound 21], the AC50 in assay [1] and in assay [2] was over 800 nM each time. Also, the “PK R510Q AC50” value in assay [3] was “No Fit”. The “Cell based ATP assay AC50” value in assay [4] is recorded as “No Fit”.

For `COc1cccc(Cn2ncc3c4sc(OC)nc4n(C)c3c2=O)c1` [Compound 22], the AC50 is under 300 nM in assay [1], under 300 nM in assay [2], under 300 nM in assay [3] and over 1000 nM in assay [4].

For `COc1cccc(Cn2ncc3c4sc(SC)nc4n(C)c3c2=O)c1` [Compound 23], the AC50 in assay [1] is under 300 nM; in assay [2], under 300 nM; in assay [3], under 300 nM; in assay [4], over 1000 nM.

In the case of `COc1cccc(Cn2ncc3c4sc([S+](C)[O-])nc4n(C)c3c2=O)c1` (stereo not shown) [Compound 24], the AC50 in assay [1] is under 300 nM; in assay [2], under 300 nM; in assay [3], under 300 nM; in assay [4] it was over 1000 nM.

For `COc1cccc(Cn2ncc3c4sc(S(C)(=O)=O)nc4n(C)c3c2=O)c1` [Compound 25], the AC50 was under 300 nM in assay [1], under 300 nM in assay [2], under 300 nM in assay [3] and over 1000 nM in assay [4].

Consider `Cc1nc2c(s1)c1cnn(Cc3cccc4[nH]ncc34)c(=O)c1n2C` [Compound 26], for which the AC50 in assay [1] was under 300 nM; in assay [2], over 800 nM; in assay [3], under 300 nM; in assay [4], at most 1000 nM.

With `COc1cccc(Cn2ncc3c4sc(C)nc4n(C)c3c2=O)n1` [Compound 27], the AC50 in assay [1] is under 300 nM; in assay [2], 301 to 800 nM; in assay [3] it was 301 to 800 nM; in assay [4], at most 1000 nM.

Regarding `Cc1nc2c(s1)c1cnn(Cc3cccc(F)n3)c(=O)c1n2C` [Compound 28], the AC50 in assay [1] was over 800 nM; in assay [2] it was over 800 nM; in assay [3] it was over 800 nM; in assay [4], over 1000 nM.

Turning to `Cc1nc2c(s1)c1cnn(Cc3ccc4[nH]ncc4c3)c(=O)c1n2C` [Compound 29], the AC50 in assay [1] was under 300 nM; in assay [2], under 300 nM; in assay [3] it was under 300 nM; in assay [4], over 1000 nM.

Turning to `COc1cccc(Cn2ncc3c4sc(Cl)nc4n(C)c3c2=O)c1` [Compound 30], the AC50 was under 300 nM in assay [1], 301 to 800 nM in assay [2], under 300 nM in assay [3] and over 1000 nM in assay [4].

On to `COc1cccc(Cn2ncc3c4sc(Cc5ccc(Cl)cc5)nc4n(C)c3c2=O)c1` [Compound 31], for which the AC50 in assay [1] is under 300 nM; in assay [2], 301 to 800 nM; in assay [3], under 300 nM; in assay [4], at most 1000 nM.
